Patent US7282210B2, “Process for the in vitro culture of different stages of tissular parasites” (priority 1993, dated 2007)

Tests used:
[1] = system: resistant amastigote forms of L. mexicana; test: growth inhibition by pentamidine, resistant amastigote forms; type: cell-based
From the text: (§1) In the stage of putting in contact, the parasitic forms are used at concentrations of 10^6 parasite/ml and the activity of the medicaments is studied at increasing concentrations.
(§2) Promastigote forms of L. mexicana resistant to pentamidine are obtained by medicamentous pressure in vitro and have a resistance index of about 30. They are then transformed according to the culture method already described into corresponding cultured amastigote forms which, after determination of the IC50, retain the resistance to pentamidine induced in the promastigote forms.
(§3) For the promastigotes the value is 27 and for the amastigotes it is 26.

[2] = system: resistant promastigote forms of L. mexicana; test: growth inhibition by pentamidine, resistant promastigote forms; type: cell-based; details: Leishmania mexicana, read-out: IC50 (concentration of pentamidine for which a growth inhibition of 50% is observed)
From the text: as §1, §2, §3

[3] = system: untreated promastigote forms of L. mexicana; test: growth inhibition by pentamidine, untreated promastigote forms; type: cell-based; details: Leishmania mexicana, read-out: IC50 (concentration of pentamidine for which a growth inhibition of 50% is observed)
From the text: as §1, §2, §3

[4] = system: cultured amastigote forms of L. mexicana, L. amazonensis, L. braziliensis and L. chagasi; test: direct leishmanicidal effect of nitric oxide on cultured amastigote forms; type: cell-based, Leishmania
From the text: (§4) Also, one of the mechanisms leading to lysis of the amastigote forms was elucidated.
The culture kinetics as well as the differentiation of the amastigote forms into promastigote forms were monitored after this treatment.

cis-aconitase = test: enzymatic activities of amastigote forms treated or not treated with NO; type: biochemical, Leishmania
From the text: as §4

[5] = medium containing alpha-ketoglutaric acid (3 mM) and cis-aconitate (3 mM) added immediately to parasites treated with NO

N=C(N)c1ccc(OCCCCCOc2ccc(C(=N)N)cc2)cc1 [pentamidine]
IC50 ([1]; Leishmania mexicana, read-out: IC50 (concentration of pentamidine for which a growth inhibition of 50% is observed)): 32 ± 1 µM | resistance index (IC50 of the resistant strain/IC50 of the untreated strain) ([1]; amastigotes): 26 | IC50 [2]: 33 µM | IC50 [3]: 1.2 ± 0.05 µM

O=C(O)/C=C(/CC(=O)O)C(=O)O [cis-aconitate]
growth of NO-treated amastigote forms [4, 5]: restore the growth of the amastigote forms

O=C(O)CCC(=O)C(=O)O [alpha-ketoglutaric acid]
growth of NO-treated amastigote forms [4, 5]: restore the growth of the amastigote forms

O=S(=O)([O-])[O-].[Fe+2] [FeSO4]
growth of NO-treated amastigote forms ([4]; medium containing 100 μm of FeSO4 added immediately to parasites treated with NO): restore the growth of the amastigote forms

[N]=O [NO, nitric oxide]
effect on cis-aconitase activity (cis-aconitase): inhibition of cis-aconitase | leishmanicidal effect on cultured amastigote forms ([4]; gaseous NO (1%) carried by nitrogen (99%), pulsed for 15 minutes): leishmanicidal activity
